Experimental findings from patent US11332485B2, “Penicillin-binding protein inhibitors” (priority 2017, dated 2022) are described below.

In test [1] the target is T1, PBP3 from Escherichia coli (Escherichia coli, UniProt P0AD68).
T1 construct: made in house
Put plainly: Fluorescence polarization competition binding assay with Bocillin-FL. The method, boiled down: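 Fluorescence polarization competition assay with Bocillin-FL at 0.1 μM final and purified E. coli PBP3 at 1.5 μM final in 50 mM Hepes pH 8.0, 300 mM NaCl, 5% glycerol. Inhibitor preincubated with PBP3 for 30 min before probe addition; FP then read continuously for 60 min. Potency reported in binned categories.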
(Polarisation of emitted light reports the rotation of a fluorescent probe.)

The target of test [2] is T1, PBP3 from Escherichia coli. Put plainly: Competition binding assay using Bodipy-FL boronic acid probe (Example 95). The following applies: PBP3 3 μM, read-out: E. coli K12 PBP3 Potency. Here is the method:
PBP3 from Escherichia coli was cloned and purified as described previously (King, D. T, et al., ACS Infectious Diseases 2015, 1, 175-184). To establish assay conditions for competition binding, an enzyme titration/saturation binding experiment was performed. […] FP was measured immediately upon addition of PBP3 (Ex, Em), using a Cytation3 (BioTek) microplate reader and measured continuously for 60 minutes. […] The competition binding assay was validated using the beta-lactam ampicillin, with Bocillin-FL at a final concentration of 0.1 μM, PBP3 at a final concentration of 1.5 μM and concentrations of ampicillin from 0-1000 μM. […] Binding assays for boronic acid PBP inhibitors were performed in an identical fashion. Representative results are shown in Table 3, where A represents a potency of >500 μM, B represents a potency between 30 μM and 500 μM inclusive, and C represents a potency of <30 μM. NT=Not Tested.
The method described in Example II was adapted to use a Bodipy-labeled boronic acid PBP inhibitor (Example 13 or Example 95) to assess PBP3 potency of boronic acid PBP inhibitors. The method is identical to that described in Example II for the Bocillin-FL competition binding assay, with the following exceptions: PBP3 from Escherichia coli is used at a final concentration of 3 μM. […]

For test [3], the target named is T2, PBP1a from Escherichia coli (Escherichia coli, UniProt P02918).
T2 construct: made in house
T2 sequence (P02918 whole entry): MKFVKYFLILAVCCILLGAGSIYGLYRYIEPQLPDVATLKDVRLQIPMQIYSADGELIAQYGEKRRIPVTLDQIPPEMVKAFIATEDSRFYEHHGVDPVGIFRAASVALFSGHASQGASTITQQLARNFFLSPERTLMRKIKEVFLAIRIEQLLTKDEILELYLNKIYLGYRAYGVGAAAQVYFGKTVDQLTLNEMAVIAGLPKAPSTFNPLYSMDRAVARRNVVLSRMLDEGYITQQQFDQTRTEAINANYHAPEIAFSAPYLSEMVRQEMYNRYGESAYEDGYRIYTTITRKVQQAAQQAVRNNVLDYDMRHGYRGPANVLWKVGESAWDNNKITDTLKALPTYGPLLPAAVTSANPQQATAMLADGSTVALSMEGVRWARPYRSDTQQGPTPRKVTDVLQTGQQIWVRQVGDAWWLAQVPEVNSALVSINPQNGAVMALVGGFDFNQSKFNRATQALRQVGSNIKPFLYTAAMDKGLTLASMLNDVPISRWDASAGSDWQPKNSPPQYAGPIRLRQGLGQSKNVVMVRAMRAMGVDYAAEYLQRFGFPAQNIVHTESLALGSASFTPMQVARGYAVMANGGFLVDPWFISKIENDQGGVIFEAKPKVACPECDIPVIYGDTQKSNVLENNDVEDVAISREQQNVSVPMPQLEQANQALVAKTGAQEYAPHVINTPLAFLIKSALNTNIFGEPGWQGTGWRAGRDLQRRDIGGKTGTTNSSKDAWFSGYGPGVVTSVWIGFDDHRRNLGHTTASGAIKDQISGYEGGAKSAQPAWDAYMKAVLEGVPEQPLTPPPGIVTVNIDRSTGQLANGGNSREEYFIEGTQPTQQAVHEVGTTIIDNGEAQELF
Put plainly: Radioligand competition binding assay with 14C-labeled boronic acid probe (Example 96). The method, boiled down: (§1)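 Purified PBP (0.1 μM) in 20 mM Tris pH 7.5, 500 mM NaCl, 0.1% Triton X-100 preincubated 60 min with inhibitor, then 60 min with 20 μM 14C-boronic acid probe. Bound probe recovered by spin desalting and counted by scintillation; EC50 is the concentration halving probe binding.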
Background: Loss of bound radioactivity is the signal in a displacement assay; it reports binding, not function.

Test [4] has as its target T3, PBP1b from Escherichia coli (Escherichia coli, UniProt P02919).
T3 construct: made in house
The description is as above. In outline: as §1

Setting [5] is: PBP1a/PBP1b 0.1 μM, 96 at 20 μM, assay validation, read-out: EC50 (concentration of inhibitor required to reduce binding of 96 by 50%).

SMILES strings stand for the structures. Read-outs that look alike come from different tables or passages of the source.

T3 sequence (P02919 whole entry): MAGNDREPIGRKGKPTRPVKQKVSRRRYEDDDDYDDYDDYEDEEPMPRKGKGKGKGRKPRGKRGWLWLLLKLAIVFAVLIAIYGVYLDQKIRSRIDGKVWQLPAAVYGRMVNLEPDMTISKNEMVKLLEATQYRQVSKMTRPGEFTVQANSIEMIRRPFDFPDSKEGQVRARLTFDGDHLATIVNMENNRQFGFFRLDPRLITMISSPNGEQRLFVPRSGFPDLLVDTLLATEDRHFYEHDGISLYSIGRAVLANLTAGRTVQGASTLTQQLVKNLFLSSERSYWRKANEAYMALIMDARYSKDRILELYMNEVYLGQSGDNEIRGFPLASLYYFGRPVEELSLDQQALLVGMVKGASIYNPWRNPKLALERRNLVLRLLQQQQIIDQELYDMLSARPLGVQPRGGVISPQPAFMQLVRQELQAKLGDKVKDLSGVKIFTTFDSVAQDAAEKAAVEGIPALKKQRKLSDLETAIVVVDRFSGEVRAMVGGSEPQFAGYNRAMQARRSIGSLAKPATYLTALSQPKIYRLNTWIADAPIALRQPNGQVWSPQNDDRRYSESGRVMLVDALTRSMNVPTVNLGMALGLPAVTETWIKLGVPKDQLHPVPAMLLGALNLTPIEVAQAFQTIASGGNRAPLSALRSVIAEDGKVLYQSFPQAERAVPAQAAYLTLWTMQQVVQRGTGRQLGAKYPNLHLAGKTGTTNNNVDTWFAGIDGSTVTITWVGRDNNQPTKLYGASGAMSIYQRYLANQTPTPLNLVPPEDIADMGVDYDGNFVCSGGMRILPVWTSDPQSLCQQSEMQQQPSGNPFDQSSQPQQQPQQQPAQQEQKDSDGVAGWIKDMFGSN
T1 sequence (P0AD68 1-577): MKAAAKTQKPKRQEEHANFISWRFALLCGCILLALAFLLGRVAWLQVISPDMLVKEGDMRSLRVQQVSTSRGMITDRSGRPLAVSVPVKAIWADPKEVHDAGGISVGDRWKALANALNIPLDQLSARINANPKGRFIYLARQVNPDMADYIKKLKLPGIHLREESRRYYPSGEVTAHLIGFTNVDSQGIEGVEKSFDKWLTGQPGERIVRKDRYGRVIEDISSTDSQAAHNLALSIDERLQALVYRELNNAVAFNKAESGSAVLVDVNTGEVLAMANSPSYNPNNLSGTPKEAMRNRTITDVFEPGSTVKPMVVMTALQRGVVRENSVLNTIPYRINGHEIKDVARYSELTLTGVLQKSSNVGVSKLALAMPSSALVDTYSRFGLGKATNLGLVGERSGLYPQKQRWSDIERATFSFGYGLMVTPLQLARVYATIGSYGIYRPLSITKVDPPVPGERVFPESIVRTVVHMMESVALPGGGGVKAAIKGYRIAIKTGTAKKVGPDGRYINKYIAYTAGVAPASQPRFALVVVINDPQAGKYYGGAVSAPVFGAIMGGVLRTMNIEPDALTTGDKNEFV

As for `CC1(C)S[C@@H]2[C@H](NC(=O)[C@H](N)c3ccccc3)C(=O)N2[C@H]1C(=O)O` [ampicillin, reference compound], the EC50 in test [1] is 1400 nM; in test [2], under 10000 nM; in test [3] (14C-labeled probe 96 at 20 μM, PBP 0.1 μM, read-out: E. coli K12 PBP1a EC50) it was under 10000 nM; in test [3] (setting [5]) it was under 500 nM; in test [4] (14C-labeled probe 96 at 20 μM, PBP 0.1 μM, read-out: E. coli K12 PBP1b EC50), under 10000 nM; in test [4] (setting [5]), under 500 nM.
